Measurements reported in paper PMC5835321 (Cancer research, 2017).

Target: T1, PPARG (PPAR-gamma) (Homo sapiens, UniProt P37231)
T1 sequence (P37231 231-505 limits assumed): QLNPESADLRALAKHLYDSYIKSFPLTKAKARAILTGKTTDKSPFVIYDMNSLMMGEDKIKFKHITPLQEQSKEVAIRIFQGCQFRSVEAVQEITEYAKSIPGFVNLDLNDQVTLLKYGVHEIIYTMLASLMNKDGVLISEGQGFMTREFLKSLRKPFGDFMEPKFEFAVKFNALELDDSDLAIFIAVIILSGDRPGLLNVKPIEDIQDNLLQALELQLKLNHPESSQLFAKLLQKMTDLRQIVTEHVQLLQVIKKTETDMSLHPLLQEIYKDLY

CN(CCOc1ccc(C[C@H](Nc2ccccc2C(=O)c2ccccc2)C(=O)O)cc1)c1ccccn1 [GW1929]
TR-FRET coactivator recruitment and corepressor release; full agonist: Full agonists, such as rosiglitazone, tesaglitazar, GW1929, and pioglitazone, enhanced interaction between PPARG and MED1 coactivator peptide
